# Experimental data as given in PMC5573760 (Cancer Chemotherapy and Pharmacology, 2017).
# Entries after “also recorded” stand apart in the source; their conditions may differ.
# Assays:
# plasma protein = conditions: reversible; cited from earlier work
# P-glycoprotein (P-gp) = system: P-glycoprotein (P-gp); parameters: method as in Bayer AG, data on file; conditions: in vitro; ref Bayer AG, data on file; cited from earlier work
# [1] = cited from earlier work
# clinical = conditions: male, human, in vivo; for clearance: CL (total body clearance); for Tmax: t max; for half-life: t ½ (terminal half-life)
# Protocol: All subjects gave written informed consent; the study was conducted at PRA Health Sciences (Zuidlaren, The Netherlands) in accordance with the Declaration of Helsinki and was approved by an accredited institutional ethics committee (Medisch Ethische Toetsings Commissie, Assen, The Netherlands).
# Subjects remained fasting until 2-h after the end of the infusion. Volunteers stayed in-house until 14 days after the application and subsequently urine and feces were collected for 24-h on Day 16, 20, 27 and 34 if necessary, cf. below.
# Urine was collected pre-dose, at 0–12-h and 12–24 h after the start of the infusion and thereafter over 24-h intervals on Day 2 to Day 14 as well as on Day 16, 20, 27 and 34 (±1 day). Cumulative 24-h fecal samples were collected from Day 1 (day of infusion) to Day 14 and as well as on Day 16, 20, 27 and 34 (±1 day). […] The excreted radioactivity between ambulant visits during the prolongation phase of the clinical study was calculated using interpolation to get a more realistic total excretion value of all subjects (see "Pharmacokinetic analysis").
# All samples were frozen at −70 °C and analyzed within 60 days of sample collection.
# For blood/plasma ratio determination, total radioactivity in urine and feces well as data from HPLC analysis data from radioactivity measurement by liquid scintillation counting (LSC) were considered. The amount of radioactivity recovered in the excreta (A E) was related to the administered radioactive dose to establish the radioactive balance. Arithmetic means and coefficients of variation (CV) were calculated for these percentages. […] Cumulative excretion was calculated as sum of the collection intervals. The elimination of the total radioactivity in urine and feces for time-points beyond day 14 was performed by log-linear extrapolation between analyzed time-points. Amounts of radioactivity excreted in urine and feces between two ambulant visits were calculated per interpolated day by linear interpolation of log-transformed excretion data separately per matrix (lnA E(interpolated day) = Δdays × [lnA E(Visit i + 1) − lnA E(Visit i)]/[day (Visit i + 1) − day (Visit i)] + lnA E(Visit i), with A E given as amount of radioactivity excreted in matrix per day and Δdays being the difference between the calculated day and the last available visit with A E > 0). In case no feces sample was provided on an ambulant visit, this visit was neglected for interpolation. A similar approach has been described earlier. The concentration/amount for each component of each sample/time-point was calculated by multiplying the total radioactivity concentration/amount of each sample with %-area of each component obtained after off-line HPLC separation. The amount of radioactivity in urine and feces at late time-points where no component was detected was distributed in the same percentage to the component (s) present at the time-point before.
# Compartment-free analysis was performed employing WinNonlin software (version 5.3, Pharsight Certara, Princton, NJ, USA).
# Pharmacokinetic parameters were evaluated by descriptive data analysis without formal hypothesis testing by calculating either medians (t max, t last) or geometric means and %CV (remaining parameters). Excretion data (urine, feces, total) were evaluated by arithmetic means.
# [2] = Safety and tolerability assessment in healthy male volunteers; type: in vivo, human
# From the text: Physical examination, blood pressure, pulse rate, body temperature and body weight, laboratory parameters and 12-lead electrocardiogram (ECG), as well as adverse events using the common terminology criteria for adverse events (CTCAE) Version 4.03, were monitored throughout the study for safety assessment.
# cytochrome P450 3A4 = system: cytochrome P450 3A4; parameters: method as in Bayer AG, data on file; conditions: in vitro, humans; ref Bayer AG, data on file; cited from earlier work
compound,measurement,setting,value
"COc1c(OCCCN2CCOCC2)ccc2c1N=C(NC(=O)c1cnc(N)nc1)N1CCN=C21 [Copanlisib, copanlisib]","free fraction (fraction unbound in plasma), plasma protein binding",plasma protein,15.8%
same,Substrate of efflux transporter P-gp,P-glycoprotein (P-gp),substrate
same,mean systemic plasma clearance,"[1]; %CV 51.2, dose escalation study",18.9 L/h
same,Accumulation and time dependency after once weekly dosing,"[1]; PK on Cycle 1 Days 1 and 15 and Cycle 3 Day 15, dose escalation study",No accumulation and no time dependency
same,"Half-life, range (known PK of copanlisib)",[1],16.9 to 72.7 h
same,Dose dependence of C max and AUC (0–25),"[1]; dose range 0.1–1.2 mg/kg (5–93 mg total dose), dose escalation study",dose proportional increases
same,terminal phase half-life (t 1/2),"[1]; human, in vivo, 0.8 mg/kg",39.1 h
same,volume of distribution,"[1]; human, in vivo, 0.8 mg/kg",871 L
same,"AUC (0–t last) of total radioactivity (%) covered by the component, average",clinical,about 84%
same,"CL (total body clearance), geometric mean (%CV)",clinical; iv,24.8 (41.3%) L/h
same,"t ½ (terminal half-life), geometric mean (%CV)",clinical; iv,52.1 (20.9%) h
same,"t ½ (terminal half-life), range",clinical; iv,40.4 to 67.5 h
same,clearance,"clinical; iv, geometric mean (%CV)",~413 mL/min
same,clearance,"clinical; iv, range",237 to 680 mL/min
same,Vd,"clinical; iv, V z (volume of distribution during terminal phase), geometric mean (%CV)",~1870 L
same,Vd,"clinical; iv, V z, range",1250 to 2450 L
same,Tmax,"clinical; iv, median",1 h
same,Tmax,"clinical; iv, range",0.5 to 1 h
same,half-life,"clinical; iv, geometric mean (%CV)",52 h
same,half-life,"clinical; iv, range",40 to 67 h
same,Adverse events related to copanlisib,"[2]; 12 mg, 6 healthy subjects",Three mild-to-moderate gastrointestinal adverse events
same,Subjects with TEAEs assessed as related to the study drug,"[2]; abdominal pain, diarrhea and nausea",2
same,Total number of gastrointestinal TEAEs,"[2]; abdominal pain, nausea, flatulence, frequent bowel movements, diarrhea",5
same,Neutrophils and leukocytes,"[2]; all 6 healthy volunteers, all above 2/3 of the lower limit for normal values",transient decrease
same,"Other laboratory values, ECG or vital signs","[2]; human, in vivo",No clinically relevant changes
same,Tolerability,"[2]; single i.v. dose of 12 mg copanlisib, 6 healthy subjects",well tolerated
same,Deaths or serious adverse events,"[2]; single i.v. dose of 12 mg, 6 healthy subjects",No death or SAEs; also recorded: without any serious adverse event
same,Volunteers with at least one treatment emergent adverse event (TEAE),"[2]; single i.v. dose of 12 mg, 6 volunteers",Three out of the 6
same,Involvement of cytochrome P450 3A4 in the primary biotransformation step,cytochrome P450 3A4,predominant involvement
